Values joined by “and” are separate entries in the source; they are usually repeats but may differ in a detail not shown here. Equal entries are not always repeated. Toxic doses and inconclusive results are not listed.
Test system: P388 leukemia ip, CD2F1 mice, survival T/C
Assay: NCI In Vivo Anticancer Drug Screen. Data for tumor model P388 Leukemia (intraperitoneal) in CD2F1 (CDF1) mice
Details: endpoint: median survival time, higher = longer survival
Procedure, shortened: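 Mice carrying the transplanted tumor received test compound or vehicle. Survival was recorded in each group, and the value is the treated-group measurement divided by that of the vehicle-treated control group.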

[1] = dose: 100.0 mg/kg/injection, schedule: Q01DX005 (ip), vehicle: saline with Tween-80
[2] = dose: 200.0 mg/kg/injection, schedule: Q01DX005 (ip), vehicle: saline with Tween-80
[3] = dose: 50.0 mg/kg/injection, schedule: Q01DX005 (ip), vehicle: saline with Tween-80
[4] = dose: 50.0 mg/kg/injection, schedule: Q01DX009 (ip), vehicle: saline with Tween-80
[5] = dose: 100.0 mg/kg/injection, schedule: Q04DX003 (ip), vehicle: Klucel (hydroxypropylcellulose) (HPC)
[6] = dose: 200.0 mg/kg/injection, schedule: Q04DX003 (ip), vehicle: Klucel (hydroxypropylcellulose) (HPC)
[7] = dose: 50.0 mg/kg/injection, schedule: Q01DX005 (ip), vehicle: Klucel (hydroxypropylcellulose) (HPC)
[8] = dose: 100.0 mg/kg/injection, schedule: Q01DX005 (ip), vehicle: Klucel (hydroxypropylcellulose) (HPC)
[9] = dose: 200.0 mg/kg/injection, schedule: Q01DX005 (ip), vehicle: Klucel (hydroxypropylcellulose) (HPC)
[10] = dose: 100.0 mg/kg/injection, schedule: Q01DX009 (ip), vehicle: saline with Tween-80
[11] = dose: 200.0 mg/kg/injection, schedule: Q01DX009 (ip), vehicle: saline with Tween-80
[12] = dose: 60.0 mg/kg/injection, schedule: Q01DX005 (ip), vehicle: saline with Tween-80
[13] = dose: 120.0 mg/kg/injection, schedule: Q01DX005 (ip), vehicle: saline with Tween-80
[14] = dose: 240.0 mg/kg/injection, schedule: Q01DX005 (ip), vehicle: saline with Tween-80

In the case of `C=CCC(CC)(C(=O)Nc1ccc2nc(C)cc(N)c2c1)C(=O)Nc1ccc2nc(C)cc(N)c2c1`, the T/C (dose: 6.25 mg/kg/injection, schedule: Q01DX005 (ip), vehicle: saline with Tween-80) is reported as 94 % of control, the T/C (dose: 12.5 mg/kg/injection, schedule: Q01DX005 (ip), vehicle: saline with Tween-80) is reported as 89 % of control and the T/C [1] is reported as 87 % of control. The T/C [2] was 96 % of control.

With `C[CH2][Ge]([c]1ccccc1)[c]1ccccc1.C[CH2][Ge]([c]1ccccc1)[c]1ccccc1.c1cc[c]([Ge]([O][Ge]([c]2ccccc2)[c]2ccccc2)[c]2ccccc2)cc1` the T/C (dose: 50.0 mg/kg/injection, schedule: Q01DX005 (ip), vehicle: saline) was 91 % of control, the T/C (dose: 100.0 mg/kg/injection, schedule: Q01DX005 (ip), vehicle: saline) was 91 % of control and the T/C (dose: 200.0 mg/kg/injection, schedule: Q01DX005 (ip), vehicle: saline) was 91 % of control.

With `CS(=O)(=O)OCCN(CCOS(C)(=O)=O)c1ccc(N=Nc2ccccc2C(=O)O)cc1` the T/C (dose: 0.78 mg/kg/injection, schedule: Q01DX009 (ip), vehicle: Klucel (hydroxypropylcellulose) (HPC)) was 168 % of control, the T/C (dose: 1.56 mg/kg/injection, schedule: Q01DX009 (ip), vehicle: Klucel (hydroxypropylcellulose) (HPC)) was 187 % of control and 206 % of control and the T/C (dose: 3.12 mg/kg/injection, schedule: Q01DX009 (ip), vehicle: Klucel (hydroxypropylcellulose) (HPC)) was 233 % of control. The T/C (dose: 3.13 mg/kg/injection, schedule: Q01DX009 (ip), vehicle: Klucel (hydroxypropylcellulose) (HPC)) was 242 % of control and the T/C (dose: 6.25 mg/kg/injection, schedule: Q01DX009 (ip), vehicle: Klucel (hydroxypropylcellulose) (HPC)) was 107 % of control and 213 % of control.

With `COP(=O)(CC(=O)OC(CC(=O)OCc1ccccc1)C(=O)OCc1ccccc1)OC` (stereo not given) the T/C [3] was 98 % of control, the T/C [1] was 92 % of control and the T/C [2] was 93 % of control.

For `CC(NNC(=S)N1CCN(c2ccccn2)CC1)c1cccc[n+]1[O-]` (stereo not given), the T/C [3] was 103 % of control, the T/C [1] was 100 % of control and the T/C [2] was 91 % of control.

With `CCn1c2ccccc2c2cc(N=Nc3cc[n+]([O-])c4c(O)cccc34)ccc21` the T/C (dose: 5.0 mg/kg/injection, schedule: Q01DX009 (ip), vehicle: saline with Tween-80) was 110 % of control, the T/C (dose: 10.0 mg/kg/injection, schedule: Q01DX009 (ip), vehicle: saline with Tween-80) was 102 % of control and the T/C (dose: 20.0 mg/kg/injection, schedule: Q01DX009 (ip), vehicle: saline with Tween-80) was 106 % of control. The T/C (dose: 40.0 mg/kg/injection, schedule: Q01DX009 (ip), vehicle: saline with Tween-80) was 107 % of control and the T/C [4] was 86 % of control.

For `COc1ccc(C(=O)SCCCN=C(N)N)cc1`, the T/C [3] was 103 % of control and the T/C [1] was 97 % of control.

For `CS/C(=C1/C(=O)N(c2ccccc2)N=C1c1ccc(Br)cc1)N1CC1`, the T/C [5] was 95 % of control and the T/C [6] was 101 % of control.

For `CN1CCC2(CC1)OCCO2`, the T/C (dose: 25.0 mg/kg/injection, schedule: Q01DX005 (ip), vehicle: Klucel (hydroxypropylcellulose) (HPC)) was 100 % of control, the T/C [7] was 100 % of control and the T/C [8] was 89 % of control. The T/C [9] was 89 % of control.

With `COCn1ccnc1C(=O)c1ccccc1` the T/C [4] was 100 % of control, the T/C [10] was 106 % of control and the T/C [11] was 101 % of control.

For `O=C(Nc1cc(C(F)(F)F)ccc1Cl)n1nc(Cl)c2ccc([N+](=O)[O-])cc21`, the T/C [4] was 102 % of control, the T/C [10] was 104 % of control and the T/C [11] was 95 % of control.

`Nc1nc(-c2cc(C(c3ccccc3)c3ccccc3)nc(N)n2)cc(C(c2ccccc2)c2ccccc2)n1` was tested, and the T/C [12] was 105 % of control, the T/C [13] was 109 % of control and the T/C [14] was 101 % of control.

For `CC(=O)N=C(N)N`, the T/C (dose: 50.0 mg/kg/injection, schedule: Q01DX009 (ip), vehicle: saline) was 103 % of control, the T/C (dose: 100.0 mg/kg/injection, schedule: Q01DX009 (ip), vehicle: saline) was 100 % of control and the T/C (dose: 200.0 mg/kg/injection, schedule: Q01DX009 (ip), vehicle: saline) was 99 % of control.

`CC12CCC3(O)C(CCC4C(O)C(=O)CCC43C)C1CCC2=O` (stereo not given) was tested, and the T/C (dose: 11.25 mg/kg/injection, schedule: Q01DX005 (ip), vehicle: Klucel (hydroxypropylcellulose) (HPC)) was 105 % of control, the T/C (dose: 22.5 mg/kg/injection, schedule: Q01DX005 (ip), vehicle: Klucel (hydroxypropylcellulose) (HPC)) was 100 % of control and the T/C (dose: 45.0 mg/kg/injection, schedule: Q01DX005 (ip), vehicle: Klucel (hydroxypropylcellulose) (HPC)) was 105 % of control. For the same compound, the T/C (dose: 90.0 mg/kg/injection, schedule: Q01DX005 (ip), vehicle: Klucel (hydroxypropylcellulose) (HPC)) was 114 % of control and the T/C (dose: 180.0 mg/kg/injection, schedule: Q01DX005 (ip), vehicle: Klucel (hydroxypropylcellulose) (HPC)) was 98 % of control.

In the case of `O=c1cc(-c2ccccc2)c2cc3c(cc2[nH]1)oc1ccccc13`, the T/C [12] is reported as 93 % of control, the T/C [13] is reported as 98 % of control and the T/C [14] is reported as 100 % of control.

With `CCc1nc(N)nc(N)c1-c1ccc(NC)c([N+](=O)[O-])c1` the T/C [8] was 182 % of control.

In the case of `Cc1ccc(S(=O)(=O)N/N=C/c2c(Cl)n(C)c3ccccc23)cc1`, the T/C (dose: 100.0 mg/kg/injection, schedule: Q01DX001 (ip), vehicle: Klucel (hydroxypropylcellulose) (HPC)) is reported as 91 % of control, the T/C (dose: 200.0 mg/kg/injection, schedule: Q01DX001 (ip), vehicle: Klucel (hydroxypropylcellulose) (HPC)) is reported as 97 % of control and the T/C (dose: 400.0 mg/kg/injection, schedule: Q01DX001 (ip), vehicle: Klucel (hydroxypropylcellulose) (HPC)) is reported as 100 % of control.

`CB1N(c2ccccc2)N=NN1C(C)(C)C` was tested, and the T/C (dose: 15.0 mg/kg/injection, schedule: Q01DX005 (ip), vehicle: Klucel (hydroxypropylcellulose) (HPC)) was 97 % of control, the T/C (dose: 30.0 mg/kg/injection, schedule: Q01DX005 (ip), vehicle: Klucel (hydroxypropylcellulose) (HPC)) was 102 % of control and the T/C (dose: 60.0 mg/kg/injection, schedule: Q01DX005 (ip), vehicle: Klucel (hydroxypropylcellulose) (HPC)) was 107 % of control. The T/C (dose: 120.0 mg/kg/injection, schedule: Q01DX005 (ip), vehicle: Klucel (hydroxypropylcellulose) (HPC)) was 110 % of control and the T/C (dose: 240.0 mg/kg/injection, schedule: Q01DX005 (ip), vehicle: Klucel (hydroxypropylcellulose) (HPC)) was 91 % of control.

`c1ccc(CNc2nc(NCc3ccccc3)c3cn[nH]c3n2)cc1` was tested, and the T/C (dose: 25.0 mg/kg/injection, schedule: Q01DX009 (ip), vehicle: Klucel (hydroxypropylcellulose) (HPC)) was 98 % of control, the T/C (dose: 50.0 mg/kg/injection, schedule: Q01DX009 (ip), vehicle: Klucel (hydroxypropylcellulose) (HPC)) was 110 % of control and the T/C (dose: 100.0 mg/kg/injection, schedule: Q01DX009 (ip), vehicle: Klucel (hydroxypropylcellulose) (HPC)) was 103 % of control. For the same compound, the T/C (dose: 200.0 mg/kg/injection, schedule: Q01DX009 (ip), vehicle: Klucel (hydroxypropylcellulose) (HPC)) was 100 % of control.

For `O=c1c2c([nH]c(=S)n1-c1ccccc1)NCCC2`, the T/C (dose: 50.0 mg/kg/injection, schedule: Q04DX003 (ip), vehicle: Klucel (hydroxypropylcellulose) (HPC)) was 101 % of control, the T/C [5] was 101 % of control and the T/C [6] was 111 % of control.

With `C/C(=C\COc1cc(O)c2c(c1)C(=O)c1cc(C)cc(O)c1C2=O)CCC1OC1(C)C` (stereo not given) the T/C (dose: 2.5 mg/kg/injection, schedule: Q01DX005 (ip), vehicle: Klucel (hydroxypropylcellulose) (HPC)) was 98 % of control, the T/C (dose: 5.0 mg/kg/injection, schedule: Q01DX005 (ip), vehicle: Klucel (hydroxypropylcellulose) (HPC)) was 93 % of control and the T/C (dose: 10.0 mg/kg/injection, schedule: Q01DX005 (ip), vehicle: Klucel (hydroxypropylcellulose) (HPC)) was 90 % of control. For the same compound, the T/C (dose: 20.0 mg/kg/injection, schedule: Q01DX005 (ip), vehicle: Klucel (hydroxypropylcellulose) (HPC)) was 88 % of control.

For `C=CC(C)(Cl)C(Cl)/C=C/C(C=O)=C/Cl` (stereo not given), the T/C (dose: 1.75 mg/kg/injection, schedule: Q01DX009 (ip), vehicle: Klucel (hydroxypropylcellulose) (HPC)) was 101 % of control, the T/C (dose: 3.5 mg/kg/injection, schedule: Q01DX009 (ip), vehicle: Klucel (hydroxypropylcellulose) (HPC)) was 100 % of control and the T/C (dose: 7.0 mg/kg/injection, schedule: Q01DX009 (ip), vehicle: Klucel (hydroxypropylcellulose) (HPC)) was 101 % of control. For the same compound, the T/C (dose: 14.0 mg/kg/injection, schedule: Q01DX009 (ip), vehicle: Klucel (hydroxypropylcellulose) (HPC)) was 100 % of control.

For `CN(/N=C(C#N)/C(N)=N/N)c1ccccc1`, the T/C (dose: 100.0 mg/kg/injection, schedule: Q04DX002 (ip), vehicle: saline with Tween-80) was 96 % of control and the T/C (dose: 200.0 mg/kg/injection, schedule: Q04DX002 (ip), vehicle: saline with Tween-80) was 96 % of control.

For `Cc1ccc(C(=O)CSCC(=O)c2ccc(C)cc2)cc1`, the T/C [7] was 87 % of control, the T/C [8] was 86 % of control and the T/C [9] was 94 % of control.
